Test results: patent publication US9133181B2, “Substituted 6-(4-hydroxy-phenyl)-1H-pyrazolo[3,4-b]pyridine derivatives as kinase inhibitors” (SANOFI, priority 2012, dated 2015)

Molecular target: T1, human full-length recombinant PKC βII (Homo sapiens, UniProt P05771)
T1 construct: Active human full-length recombinant PKC βII; purchased Invitrogen GmbH, Darmstadt, Germany
Assay: Determination of PKC βII inhibition (Caliper mobility shift kinase assay)
Type: biochemical
Conditions: final compound concentration 1.14 μM (±0.15 μM); 60 min incubation at 32° C.
How it was run: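 Compound was tested at a final 1.14 µM (±0.15 µM), with % inhibition derived from the product/(substrate+product) peak ratio on a Caliper mobility-shift read-out. Full-length PKC βII was activated by CaCl2, PS and DAG in pH 7.4 Hepes/MgCl2. Peptide and ATP were at 3 µM and 120 µM in the added mix. Incubation was 60 min at 32 °C.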

T1 sequence (P05771 1-673 isoform P05771-2): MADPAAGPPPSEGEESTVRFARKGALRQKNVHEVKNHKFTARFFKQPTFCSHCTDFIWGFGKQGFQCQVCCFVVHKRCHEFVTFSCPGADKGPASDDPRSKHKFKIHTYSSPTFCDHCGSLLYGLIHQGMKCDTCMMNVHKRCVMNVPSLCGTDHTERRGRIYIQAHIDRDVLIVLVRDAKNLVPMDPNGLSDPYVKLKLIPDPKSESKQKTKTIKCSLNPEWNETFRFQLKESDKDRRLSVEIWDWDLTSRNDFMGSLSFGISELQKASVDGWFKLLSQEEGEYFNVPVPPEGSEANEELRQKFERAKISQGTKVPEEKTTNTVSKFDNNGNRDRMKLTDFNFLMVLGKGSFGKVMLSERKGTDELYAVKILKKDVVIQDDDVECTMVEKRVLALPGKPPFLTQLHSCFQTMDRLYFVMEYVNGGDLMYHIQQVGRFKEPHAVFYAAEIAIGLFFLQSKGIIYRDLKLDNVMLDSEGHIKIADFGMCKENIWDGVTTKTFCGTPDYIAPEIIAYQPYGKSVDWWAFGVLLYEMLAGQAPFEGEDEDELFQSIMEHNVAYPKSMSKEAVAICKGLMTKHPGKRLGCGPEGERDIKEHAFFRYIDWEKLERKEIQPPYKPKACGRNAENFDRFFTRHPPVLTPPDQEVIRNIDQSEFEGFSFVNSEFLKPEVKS

inhibition at 1.14 µM | Structure (SMILES)
94% | Cc1n[nH]c2nc(-c3ccc(O)cc3F)cc(CN3C[C@H](C)NCC3(C)C)c12 [Example 115, 3-Fluoro-4-[3-methyl-4-((S)-2,2,5-trimethyl-piperazin-1-ylmethyl)-1H-pyrazolo[3,4-b]pyridin-6-yl]-phenol]
95% | Cc1n[nH]c2nc(-c3ccc(O)cc3F)cc(CN3C[C@@H](C)NCC3(C)C)c12 [Example 116, 3-Fluoro-4-[3-methyl-4-((R)-2,2,5-trimethyl-piperazin-1-ylmethyl)-1H-pyrazolo[3,4-b]pyridin-6-yl]-phenol]
88% | Cc1n[nH]c2nc(-c3ccc(O)cc3F)cc(CN3CC(C)(C)NC[C@H]3C)c12 [Example 123, 3-Fluoro-4-[3-methyl-4-((R)-2,5,5-trimethyl-piperazin-1-ylmethyl)-1H-pyrazolo[3,4-b]pyridin-6-yl]-phenol]
83% | Cc1n[nH]c2nc(-c3ccc(O)cc3F)cc(CN3CC(C)(C)NC[C@@H]3C)c12 [Example 124, 3-Fluoro-4-[3-methyl-4-((S)-2,5,5-trimethyl-piperazin-1-ylmethyl)-1H-pyrazolo[3,4-b]pyridin-6-yl]-phenol]
87% | Cc1n[nH]c2nc(-c3ccc(O)cc3F)cc(CN3CC(C)(C)NC[C@]3(C)C3CC3)c12 [Example 125, 4-[4-((S)-2-Cyclopropyl-2,5,5-trimethyl-piperazin-1-ylmethyl)-3-methyl-1H-pyrazolo[3,4-b]pyridin-6-yl]-3-fluoro-phenol]
91% | Cc1n[nH]c2nc(-c3ccc(O)cc3F)cc(CN3CC(C)(C)NC[C@@]3(C)C3CC3)c12 [Example 126, 4-[4-((R)-2-Cyclopropyl-2,5,5-trimethyl-piperazin-1-ylmethyl)-3-methyl-1H-pyrazolo[3,4-b]pyridin-6-yl]-3-fluoro-phenol]
87% | Cc1n[nH]c2nc(-c3ccc(O)cc3F)cc(CN3C[C@H](C)NCC34CCCC4)c12 [Example 127, 3-Fluoro-4-[3-methyl-4-((S)-8-methyl-6,9-diaza-spiro[4.5]dec-6-ylmethyl)-1H-pyrazolo[3,4-b]pyridin-6-yl]-phenol]
71% | Cc1n[nH]c2nc(-c3ccc(O)cc3F)cc(CN3C[C@@H](C)NCC34CCCC4)c12 [Example 128, 3-Fluoro-4-[3-methyl-4-((R)-8-methyl-6,9-diaza-spiro[4.5]dec-6-ylmethyl)-1H-pyrazolo[3,4-b]pyridin-6-yl]-phenol]
97% | Cc1n[nH]c2nc(-c3ccc(O)cc3F)cc(CN3C[C@H](C(C)C)NCC3(C)C)c12 [Example 129, 3-Fluoro-4-[4-((S)-5-isopropyl-2,2-dimethyl-piperazin-1-ylmethyl)-3-methyl-1H-pyrazolo[3,4-b]pyridin-6-yl]-phenol]
98% | Cc1n[nH]c2nc(-c3ccc(O)cc3F)cc(CN3C[C@@H](C(C)C)NCC3(C)C)c12 [Example 130, 3-Fluoro-4-[4-((R)-5-isopropyl-2,2-dimethyl-piperazin-1-ylmethyl)-3-methyl-1H-pyrazolo[3,4-b]pyridin-6-yl]-phenol]
104% | CC[C@@]1(C)CN(Cc2cc(-c3ccc(O)cc3F)nc3[nH]nc(C)c23)C(C)(C)CN1 [Example 136, 4-[4-((S)-5-Ethyl-2,2,5-trimethyl-piperazin-1-ylmethyl)-3-methyl-1H-pyrazolo[3,4-b]pyridin-6-yl]-3-fluoro-phenol]
98% | Cc1n[nH]c2nc(-c3ccc(O)cc3F)cc(CN3CC4(CCCC4)NC[C@@H]3C)c12 [Example 137, 3-Fluoro-4-[3-methyl-4-((S)-8-methyl-6,9-diaza-spiro[4.5]dec-9-ylmethyl)-1H-pyrazolo[3,4-b]pyridin-6-yl]-phenol]
98% | Cc1n[nH]c2nc(-c3ccc(O)cc3F)cc(CN3CC4(CCCC4)NC[C@H]3C)c12 [Example 138, 3-Fluoro-4-[3-methyl-4-((R)-8-methyl-6,9-diaza-spiro[4.5]dec-9-ylmethyl)-1H-pyrazolo[3,4-b]pyridin-6-yl]-phenol]
101% | CC[C@H]1CNC(C)(C)CN1Cc1cc(-c2ccc(O)cc2F)nc2[nH]nc(C)c12 [Example 143, 4-[4-((S)-2-Ethyl-5,5-dimethyl-piperazin-1-ylmethyl)-3-methyl-1H-pyrazolo[3,4-b]pyridin-6-yl]-3-fluoro-phenol]
98% | CC[C@@H]1CNC(C)(C)CN1Cc1cc(-c2ccc(O)cc2F)nc2[nH]nc(C)c12 [Example 144, 4-[4-((R)-2-Ethyl-5,5-dimethyl-piperazin-1-ylmethyl)-3-methyl-1H-pyrazolo[3,4-b]pyridin-6-yl]-3-fluoro-phenol]

Continued, compound first:

Structure (SMILES) | inhibition at 1.14 µM
Cc1n[nH]c2nc(-c3ccc(O)cc3)cc(CN3CCNC[C@@H]3c3ccc(C(F)(F)F)cc3)c12 [Example 113, 4-{3-Methyl-4-[(S)-2-(4-trifluoromethyl-phenyl)-piperazin-1-ylmethyl]-1H-pyrazolo[3,4-b]pyridin-6-yl}-phenol] | 81%
Cc1n[nH]c2nc(-c3ccc(O)cc3)cc(CN3CCNC[C@H]3c3ccc(C(F)(F)F)cc3)c12 [Example 114, 4-{3-Methyl-4-[(R)-2-(4-trifluoromethyl-phenyl)-piperazin-1-ylmethyl]-1H-pyrazolo[3,4-b]pyridin-6-yl}-phenol] | 57%
Cc1n[nH]c2nc(-c3ccc(O)cc3F)cc(CN3CCNC[C@]3(C)c3ccccc3)c12 [Example 117, 3-Fluoro-4-[3-methyl-4-((S)-2-methyl-2-phenyl-piperazin-1-ylmethyl)-1H-pyrazolo[3,4-b]pyridin-6-yl]-phenol] | 99%
Cc1n[nH]c2nc(-c3ccc(O)cc3F)cc(CN3CCNC[C@@]3(C)c3ccccc3)c12 [Example 118, 3-Fluoro-4-[3-methyl-4-((R)-2-methyl-2-phenyl-piperazin-1-ylmethyl)-1H-pyrazolo[3,4-b]pyridin-6-yl]-phenol] | 84%
Cc1n[nH]c2nc(-c3ccc(O)cc3F)cc(CN3CCNC[C@@H]3c3cccc(F)c3)c12 [Example 119, 3-Fluoro-4-{4-[(S)-2-(3-fluoro-phenyl)-piperazin-1-ylmethyl]-3-methyl-1H-pyrazolo[3,4-b]pyridin-6-yl}-phenol] | 86%
Cc1n[nH]c2nc(-c3ccc(O)cc3F)cc(CN3CCNC[C@H]3c3cccc(F)c3)c12 [Example 120, 3-Fluoro-4-{4-[(R)-2-(3-fluoro-phenyl)-piperazin-1-ylmethyl]-3-methyl-1H-pyrazolo[3,4-b]pyridin-6-yl}-phenol] | 102%
CC[C@]1(C)CNC(C)(C)CN1Cc1cc(-c2ccc(O)cc2F)nc2[nH]nc(C)c12 [Example 121, 4-[4-((R)-2-Ethyl-2,5,5-trimethyl-piperazin-1-ylmethyl)-3-methyl-1H-pyrazolo[3,4-b]pyridin-6-yl]-3-fluoro-phenol] | 100%
CC[C@@]1(C)CNC(C)(C)CN1Cc1cc(-c2ccc(O)cc2F)nc2[nH]nc(C)c12 [Example 122, 4-[4-((S)-2-Ethyl-2,5,5-trimethyl-piperazin-1-ylmethyl)-3-methyl-1H-pyrazolo[3,4-b]pyridin-6-yl]-3-fluoro-phenol] | 100%
Cc1n[nH]c2nc(-c3ccc(O)cc3)cc(CN3C[C@H](C)NCC3(C)C)c12 [Example 131, 4-[3-Methyl-4-((S)-2,2,5-trimethyl-piperazin-1-ylmethyl)-1H-pyrazolo[3,4-b]pyridin-6-yl]-phenol] | 103%
Cc1n[nH]c2nc(-c3ccc(O)cc3)cc(CN3C[C@@H](C)NCC3(C)C)c12 [Example 132, 4-[3-Methyl-4-((R)-2,2,5-trimethyl-piperazin-1-ylmethyl)-1H-pyrazolo[3,4-b]pyridin-6-yl]-phenol] | 97%
Cc1n[nH]c2nc(-c3ccc(O)cc3F)cc(CN3CC(C)(C)NC[C@@H]3C(C)C)c12 [Example 133, 3-Fluoro-4-[4-((S)-2-isopropyl-5,5-dimethyl-piperazin-1-ylmethyl)-3-methyl-1H-pyrazolo[3,4-b]pyridin-6-yl]-phenol] | 103%
Cc1n[nH]c2nc(-c3ccc(O)cc3F)cc(CN3CC(C)(C)NC[C@H]3C(C)C)c12 [Example 134, 3-Fluoro-4-[4-((R)-2-isopropyl-5,5-dimethyl-piperazin-1-ylmethyl)-3-methyl-1H-pyrazolo[3,4-b]pyridin-6-yl]-phenol] | 102%
CC[C@]1(C)CN(Cc2cc(-c3ccc(O)cc3F)nc3[nH]nc(C)c23)C(C)(C)CN1 [Example 135, 4-[4-((R)-5-Ethyl-2,2,5-trimethyl-piperazin-1-ylmethyl)-3-methyl-1H-pyrazolo[3,4-b]pyridin-6-yl]-3-fluoro-phenol] | 106%
Cc1n[nH]c2nc(-c3ccc(O)cc3)cc(CN3CC(C)(C)NC[C@@H]3C)c12 [Example 139, 4-[3-Methyl-4-((S)-2,5,5-trimethyl-piperazin-1-ylmethyl)-1H-pyrazolo[3,4-b]pyridin-6-yl]-phenol] | 95%
Cc1n[nH]c2nc(-c3ccc(O)cc3)cc(CN3CC(C)(C)NC[C@H]3C)c12 [Example 140, 4-[3-Methyl-4-((R)-2,5,5-trimethyl-piperazin-1-ylmethyl)-1H-pyrazolo[3,4-b]pyridin-6-yl]-phenol] | 98%
CC[C@]1(C)CNC(C)(C)CN1Cc1cc(-c2ccc(O)cc2)nc2[nH]nc(C)c12 [Example 141, 4-[4-((R)-2-Ethyl-2,5,5-trimethyl-piperazin-1-ylmethyl)-3-methyl-1H-pyrazolo[3,4-b]pyridin-6-yl]-phenol] | 98%
CC[C@@]1(C)CNC(C)(C)CN1Cc1cc(-c2ccc(O)cc2)nc2[nH]nc(C)c12 [Example 142, 4-[4-((S)-2-Ethyl-2,5,5-trimethyl-piperazin-1-ylmethyl)-3-methyl-1H-pyrazolo[3,4-b]pyridin-6-yl]-phenol] | 100%
